# Measurements as given in US20200338045A1, “ISOINDOLINE COMPOSITIONS AND METHODS FOR TREATING NEURODEGENERATIVE DISEASE” (priority 2017, published 2020).
# Entries after “also recorded” stand apart in the source; their conditions may differ.
# Tests used:
# [1] = Phase 1 MAD safety (adverse events, laboratory, ECG); format: in vivo, human
# Description: In Part B, healthy young subjects in each cohort received the same dose once daily for 14 days after overnight fasting. Cohort dosing started at 280 mg, followed by 560 mg and 840 mg in subsequent cohorts. In each cohort, eight subjects received drug and two received placebo. A fourth cohort of healthy elderly subjects (≥65 years old) received a 560 mg dose vs. placebo daily for 14 days (seven active, two placebo).
# Subjects were dosed in the morning with 240 mL of water after an 8-hour fast, and remained in a semi-reclined position for 1 hour and fasting for 2 hours post-administration, except for the fed cohort in Part A. Subjects in each MAD cohort were confined to the clinical facility from check-in on Day 0 until the pharmacokinetic sample was collected on Day 16, 48 hours after administration of the last dose on Day 14. Subjects returned to the clinical facility for follow-up visits on Days 24 and 35.
# Safety variables, including incidence of adverse events (AEs), vital signs, clinical laboratory findings, 12-lead electrocardiographs (ECGs), physical examination, and affective and cognitive measures (Part B only), were summarized for all subjects who received study drug.
# [2] = tested on: Aβ oligomers bound to neuronal receptors; experiment: Aβ oligomer binding to / displacement from neuronal receptors; format: cell-based
# [3] = MAD, 280 mg, Age ≤64 yrs (n = 8)
# [4] = MAD, 560 mg, Age ≤64 yrs (n = 8)
# [5] = MAD, 560 mg, Age ≥65 years (n = 7)
# [6] = MAD, 840 mg, Age ≤64 yrs (n = 8)
compound,measurement,setting,value
CC(C)(C)Oc1cc(CCC(C)(C)N2Cc3ccc(S(C)(=O)=O)cc3C2)ccc1O [CT1812],vomiting incidence,"[1]; 840 mg dose, two instances",25%
same,serious AE (SAE),"[1]; 840 mg, respiratory picornavirus infection deemed unrelated to study treatment",One serious AE
same,"tolerability, multiple dose","[1]; 280 to 840 mg QD 14 days (young), 560 mg (elderly)",safe and well tolerated
same,ECG parameters or changes,[1]; MAD,No ECG parameters or changes were assessed as clinically significant
same,Number of Subjects with at least one Treatment-Emergent AE: All TEAEs,[1]; [3],7
same,Number of Subjects with at least one Treatment-Emergent AE: Dizziness,[1]; [3],1
same,Number of Subjects with at least one Treatment-Emergent AE: Dyspepsia,[1]; [3],1
same,Number of Subjects with at least one Treatment-Emergent AE: Headache,[1]; [3],2
same,Number of Subjects with at least one Treatment-Emergent AE: Nausea,[1]; [3],1
same,Number of Subjects with at least one Treatment-Emergent AE: Upper respiratory tract infection,[1]; [3],5
same,Subjects (%) with at least one Treatment-Emergent AE: All TEAEs,[1]; [3],(88%)
same,Subjects (%) with at least one Treatment-Emergent AE: Dizziness,[1]; [3],(13%)
same,Subjects (%) with at least one Treatment-Emergent AE: Dyspepsia,[1]; [3],(13%)
same,Subjects (%) with at least one Treatment-Emergent AE: Headache,[1]; [3],(25%)
same,Subjects (%) with at least one Treatment-Emergent AE: Nausea,[1]; [3],(13%)
same,Subjects (%) with at least one Treatment-Emergent AE: Upper respiratory tract infection,[1]; [3],(63%)
same,Number of Subjects with at least one Treatment-Emergent AE: All TEAEs,[1]; [4],7
same,Number of Subjects with at least one Treatment-Emergent AE: Catheter site phlebitis,[1]; [4],1
same,Number of Subjects with at least one Treatment-Emergent AE: Dyspepsia,[1]; [4],1
same,Number of Subjects with at least one Treatment-Emergent AE: Headache,[1]; [4],1
same,Number of Subjects with at least one Treatment-Emergent AE: Procedural pain,[1]; [4],4
same,Number of Subjects with at least one Treatment-Emergent AE: Upper respiratory tract infection,[1]; [4],1
same,Subjects (%) with at least one Treatment-Emergent AE: All TEAEs,[1]; [4],(88%)
same,Subjects (%) with at least one Treatment-Emergent AE: Catheter site phlebitis,[1]; [4],(13%)
same,Subjects (%) with at least one Treatment-Emergent AE: Dyspepsia,[1]; [4],(13%)
same,Subjects (%) with at least one Treatment-Emergent AE: Headache,[1]; [4],(13%)
same,Subjects (%) with at least one Treatment-Emergent AE: Procedural pain,[1]; [4],(50%)
same,Subjects (%) with at least one Treatment-Emergent AE: Upper respiratory tract infection,[1]; [4],(13%)
same,Number of Subjects with at least one Treatment-Emergent AE: All TEAEs,[1]; [5],5
same,Number of Subjects with at least one Treatment-Emergent AE: Back pain,[1]; [5],1
same,Number of Subjects with at least one Treatment-Emergent AE: Dizziness,[1]; [5],1
same,Number of Subjects with at least one Treatment-Emergent AE: Headache,[1]; [5],3
same,Subjects (%) with at least one Treatment-Emergent AE: All TEAEs,[1]; [5],(71%)
same,Subjects (%) with at least one Treatment-Emergent AE: Back pain,[1]; [5],(14%)
same,Subjects (%) with at least one Treatment-Emergent AE: Dizziness,[1]; [5],(14%)
same,Subjects (%) with at least one Treatment-Emergent AE: Headache,[1]; [5],(43%)
same,Number of Subjects with at least one Treatment-Emergent AE: All TEAEs,[1]; [6],6
same,Number of Subjects with at least one Treatment-Emergent AE: Back pain,[1]; [6],1
same,Number of Subjects with at least one Treatment-Emergent AE: Catheter site phlebitis,[1]; [6],1
same,Number of Subjects with at least one Treatment-Emergent AE: Dizziness,[1]; [6],1
same,Number of Subjects with at least one Treatment-Emergent AE: Dyspepsia,[1]; [6],1
same,Number of Subjects with at least one Treatment-Emergent AE: Headache,[1]; [6],4
same,Number of Subjects with at least one Treatment-Emergent AE: Nausea,[1]; [6],1
same,Number of Subjects with at least one Treatment-Emergent AE: Procedural pain,[1]; [6],2
same,Number of Subjects with at least one Treatment-Emergent AE: Upper respiratory tract infection,[1]; [6],2
same,Number of Subjects with at least one Treatment-Emergent AE: Vomiting,[1]; [6],2
same,Subjects (%) with at least one Treatment-Emergent AE: All TEAEs,[1]; [6],(75%)
same,Subjects (%) with at least one Treatment-Emergent AE: Back pain,[1]; [6],(13%)
same,Subjects (%) with at least one Treatment-Emergent AE: Catheter site phlebitis,[1]; [6],(13%)
same,Subjects (%) with at least one Treatment-Emergent AE: Dizziness,[1]; [6],(13%)
same,Subjects (%) with at least one Treatment-Emergent AE: Dyspepsia,[1]; [6],(13%)
same,Subjects (%) with at least one Treatment-Emergent AE: Headache,[1]; [6],(50%)
same,Subjects (%) with at least one Treatment-Emergent AE: Nausea,[1]; [6],(13%)
same,Subjects (%) with at least one Treatment-Emergent AE: Procedural pain,[1]; [6],(25%)
same,Subjects (%) with at least one Treatment-Emergent AE: Upper respiratory tract infection,[1]; [6],(25%)
same,Subjects (%) with at least one Treatment-Emergent AE: Vomiting,[1]; [6],(25%)
same,"Treatment-emergent AEs, % of subjects","[1]; MAD, CT1812 (of 31 subjects)",81%
same,"Treatment-emergent AEs, number of subjects","[1]; MAD, CT1812 (of 31 subjects)",25
same,Number of Subjects with at least one Treatment-Emergent AE: All TEAEs,"[1]; MAD, Total Active (n = 31)",25
same,Number of Subjects with at least one Treatment-Emergent AE: Back pain,"[1]; MAD, Total Active (n = 31)",2
same,Number of Subjects with at least one Treatment-Emergent AE: Catheter site phlebitis,"[1]; MAD, Total Active (n = 31)",2
same,Number of Subjects with at least one Treatment-Emergent AE: Dizziness,"[1]; MAD, Total Active (n = 31)",3
same,Number of Subjects with at least one Treatment-Emergent AE: Dyspepsia,"[1]; MAD, Total Active (n = 31)",3
same,Number of Subjects with at least one Treatment-Emergent AE: Headache,"[1]; MAD, Total Active (n = 31)",10
same,Number of Subjects with at least one Treatment-Emergent AE: Nausea,"[1]; MAD, Total Active (n = 31)",2
same,Number of Subjects with at least one Treatment-Emergent AE: Procedural pain,"[1]; MAD, Total Active (n = 31)",6
same,Number of Subjects with at least one Treatment-Emergent AE: Upper respiratory tract infection,"[1]; MAD, Total Active (n = 31)",8
same,Number of Subjects with at least one Treatment-Emergent AE: Vomiting,"[1]; MAD, Total Active (n = 31)",2
same,Subjects (%) with at least one Treatment-Emergent AE: All TEAEs,"[1]; MAD, Total Active (n = 31)",(%81)
same,Subjects (%) with at least one Treatment-Emergent AE: Back pain,"[1]; MAD, Total Active (n = 31)",(6%)
same,Subjects (%) with at least one Treatment-Emergent AE: Catheter site phlebitis,"[1]; MAD, Total Active (n = 31)",(6%)
same,Subjects (%) with at least one Treatment-Emergent AE: Dizziness,"[1]; MAD, Total Active (n = 31)",(10%)
same,Subjects (%) with at least one Treatment-Emergent AE: Dyspepsia,"[1]; MAD, Total Active (n = 31)",(10%)
same,Subjects (%) with at least one Treatment-Emergent AE: Headache,"[1]; MAD, Total Active (n = 31)",(32%)
same,Subjects (%) with at least one Treatment-Emergent AE: Nausea,"[1]; MAD, Total Active (n = 31)",(6%)
same,Subjects (%) with at least one Treatment-Emergent AE: Procedural pain,"[1]; MAD, Total Active (n = 31)",(19%)
same,Subjects (%) with at least one Treatment-Emergent AE: Upper respiratory tract infection,"[1]; MAD, Total Active (n = 31)",(26%)
same,Subjects (%) with at least one Treatment-Emergent AE: Vomiting,"[1]; MAD, Total Active (n = 31)",(6%)
same,rash,"[1]; MAD, improved after discontinuing CT1812",One subject developed a rash
same,increase in liver function tests,[1]; four subjects in MAD study (including one on placebo),below 3 × the upper limit of normal
same,displacement of Aβ oligomers from neuronal/synaptic receptors,[2],displaces amyloid beta (Aβ) oligomers from neuronal receptors; also recorded: displace oligomers from synaptic receptor sites; also recorded: prevents and displaces binding of Aβ oligomers to neurons
